Assay results from ChEMBL document CHEMBL4725253, “Discovery of quinoline-based irreversible BTK inhibitors” (Bioorg Med Chem Lett, 2020).

Experiments:
[1] = Inhibition of anti-human alphaIgM-stimulated MIP1beta production in human Ramos B cells preincubated for 1 hr followed by anti-human IgM stimulation for 6 hrs by ELISA; type: functional, cell-based
[2] = Solubility of compound by turbidimetric assay; type: physicochemical
[3] = molecular target: T1, Tyrosine-protein kinase BTK (Homo sapiens, UniProt Q06187); assay: Inhibition of human recombinant full length N-terminal His6-tagged BTK expressed in baculovirus infected Sf9 cells using fluorescein labeled Blk/Lyntide substrate preincubated with enzyme for 60 mins followed by further incubation with substrate and ATP for 120 mins by IMAP assay
T1 sequence (Q06187 whole entry): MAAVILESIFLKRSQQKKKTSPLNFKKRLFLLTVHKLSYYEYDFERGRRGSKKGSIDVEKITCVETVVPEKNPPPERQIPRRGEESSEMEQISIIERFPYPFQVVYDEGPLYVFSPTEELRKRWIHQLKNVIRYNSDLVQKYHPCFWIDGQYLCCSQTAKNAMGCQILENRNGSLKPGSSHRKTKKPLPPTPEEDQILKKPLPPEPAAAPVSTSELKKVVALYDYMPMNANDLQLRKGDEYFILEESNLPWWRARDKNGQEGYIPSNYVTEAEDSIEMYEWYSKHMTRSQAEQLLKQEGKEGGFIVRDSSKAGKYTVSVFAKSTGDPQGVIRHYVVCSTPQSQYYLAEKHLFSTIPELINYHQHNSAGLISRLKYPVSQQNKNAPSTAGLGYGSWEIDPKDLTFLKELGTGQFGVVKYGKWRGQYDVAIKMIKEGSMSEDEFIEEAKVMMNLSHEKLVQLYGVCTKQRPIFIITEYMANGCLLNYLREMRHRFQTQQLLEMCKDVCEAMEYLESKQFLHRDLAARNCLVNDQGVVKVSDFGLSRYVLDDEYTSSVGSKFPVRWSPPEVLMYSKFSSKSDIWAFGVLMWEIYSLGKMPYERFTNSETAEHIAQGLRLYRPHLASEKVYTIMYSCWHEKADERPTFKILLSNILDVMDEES

Homo sapiens = species: Homo sapiens; assay: Selectivity index, ratio of IC50 for EGFR (unknown origin) expressed in baculovirus system to IC50 for human recombinant full length N-terminal His6-tagged BTK expressed in baculovirus infected Sf9 cells
[4] = molecular target: Epidermal growth factor receptor (Homo sapiens, UniProt P00533); assay: Inhibition of EGFR (unknown origin) expressed in baculovirus system using fluorescein labeled PDGFR-tide substrate peptide preincubated for 60 mins followed by ATP addition and measured after 60 mins by IMAP assay
Sequence of Epidermal growth factor receptor (P00533 whole entry): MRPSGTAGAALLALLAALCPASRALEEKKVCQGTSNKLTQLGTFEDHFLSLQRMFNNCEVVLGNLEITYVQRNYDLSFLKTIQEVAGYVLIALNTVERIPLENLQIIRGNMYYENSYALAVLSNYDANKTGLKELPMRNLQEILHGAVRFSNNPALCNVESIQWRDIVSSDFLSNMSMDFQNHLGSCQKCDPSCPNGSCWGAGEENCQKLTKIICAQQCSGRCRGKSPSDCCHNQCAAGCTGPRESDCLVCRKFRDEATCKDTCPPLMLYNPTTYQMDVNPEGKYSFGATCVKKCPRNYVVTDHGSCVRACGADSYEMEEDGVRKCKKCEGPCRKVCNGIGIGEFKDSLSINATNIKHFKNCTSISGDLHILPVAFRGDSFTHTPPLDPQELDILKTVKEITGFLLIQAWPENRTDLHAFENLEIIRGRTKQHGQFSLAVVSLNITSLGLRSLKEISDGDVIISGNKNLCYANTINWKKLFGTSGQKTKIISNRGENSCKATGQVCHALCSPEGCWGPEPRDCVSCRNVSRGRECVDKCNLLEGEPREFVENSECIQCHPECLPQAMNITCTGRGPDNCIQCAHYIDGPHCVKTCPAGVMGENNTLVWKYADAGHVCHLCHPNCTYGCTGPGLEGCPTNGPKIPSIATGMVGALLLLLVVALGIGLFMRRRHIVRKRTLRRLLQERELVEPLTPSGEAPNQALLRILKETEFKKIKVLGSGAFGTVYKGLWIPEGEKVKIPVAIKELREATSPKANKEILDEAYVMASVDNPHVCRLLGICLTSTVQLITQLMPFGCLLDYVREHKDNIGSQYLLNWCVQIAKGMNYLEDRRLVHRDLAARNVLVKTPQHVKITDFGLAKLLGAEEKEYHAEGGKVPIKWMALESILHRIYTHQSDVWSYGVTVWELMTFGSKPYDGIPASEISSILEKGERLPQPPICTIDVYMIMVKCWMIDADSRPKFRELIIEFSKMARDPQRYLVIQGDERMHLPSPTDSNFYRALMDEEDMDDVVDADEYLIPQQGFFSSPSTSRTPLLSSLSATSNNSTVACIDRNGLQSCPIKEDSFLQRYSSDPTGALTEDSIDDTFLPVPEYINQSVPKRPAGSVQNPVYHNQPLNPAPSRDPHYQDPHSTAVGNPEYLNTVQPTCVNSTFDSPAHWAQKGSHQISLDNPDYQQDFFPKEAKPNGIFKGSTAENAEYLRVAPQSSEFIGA

[5] = Inhibition of goat anti-human IgM F(ab')-stimulated CD69 cell surface expression in human PBMC preincubated for 2 hrs followed by anti-human IgM stimulation for 18 hrs by flow cytometric analysis; type: functional, tissue-based
Blood = assay: Inhibition of mouse anti-human anti-IgD-stimulated CD69 cell surface expression in human whole blood preincubated for 2 hrs followed by anti-human anti-IgD stimulation for 18 hrs by flow cytometric analysis; type: functional, tissue-based
[6] = In vivo inhibition of CD69 expression in po dosed mouse; type: functional
[7] = molecular target: Tyrosine-protein kinase Blk (Homo sapiens, UniProt P51451); assay: Inhibition of recombinant full length human His-tagged BLK cytoplasmic domain expressed in baculovirus expression system using tyrosine-1 peptide as substrate preincubated for 1 hr in presence of ATP by Z'-LYTE assay
Sequence of Tyrosine-protein kinase Blk (P51451 whole entry, the tested form may be a part): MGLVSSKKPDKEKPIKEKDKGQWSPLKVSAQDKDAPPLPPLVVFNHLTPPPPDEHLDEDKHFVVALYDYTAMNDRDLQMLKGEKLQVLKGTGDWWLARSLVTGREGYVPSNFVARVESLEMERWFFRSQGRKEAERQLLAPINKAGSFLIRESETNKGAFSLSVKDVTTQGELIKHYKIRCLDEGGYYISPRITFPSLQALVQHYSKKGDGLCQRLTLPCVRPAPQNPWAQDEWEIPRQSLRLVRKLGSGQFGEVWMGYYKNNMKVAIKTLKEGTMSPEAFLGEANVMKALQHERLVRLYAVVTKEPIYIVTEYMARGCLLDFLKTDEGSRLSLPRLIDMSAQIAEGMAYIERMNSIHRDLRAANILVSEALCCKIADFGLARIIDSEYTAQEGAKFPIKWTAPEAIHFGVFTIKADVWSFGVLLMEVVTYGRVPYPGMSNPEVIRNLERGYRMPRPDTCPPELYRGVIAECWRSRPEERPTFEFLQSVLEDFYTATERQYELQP

[8] = molecular target: T1, Tyrosine-protein kinase BTK; assay: Covalent inhibition of His-tagged human full length recombinant BTK expressed in baculovirus expression system incubated for 5 to 120 mins by Lanthascreen TR-FRET assay; conditions: time min 5-120, TDE = time-dependent effect

Structure (SMILES)	EC50 [1] [nM]	IC50 [3] [nM]	IC50 [4] [nM]	further results
O=C(C#CCO)Nc1ccc2nccc(Oc3ccc(C(=O)Nc4ccccn4)cc3)c2c1	28	0.33	6.3	solubility kinetic [2]: < 1 µM; Ratio IC50 (Homo sapiens): 19
CN(C)C/C=C/C(=O)Nc1ccc2nccc(Oc3ccc(C(=O)Nc4ccccn4)cc3)c2c1	89	7.2	275	–
CCN1CCN(CC#CC(=O)Nc2ccc3nccc(Oc4ccc(C(=O)Nc5ccccn5)cc4)c3c2)CC1	18	2.5	55	Ratio IC50 (Homo sapiens): 22
C=CC(=O)Nc1ccc2ncnc(Nc3ccc(C(=O)Nc4ccccn4)cc3)c2c1	–	–	3.8	EC50 [3]: 18 nM
COCC#CC(=O)Nc1cc2c(Oc3ccc(C(=O)Nc4ccccn4)cc3)ccnc2cc1OC	12	0.96	12	–
COc1cc2nccc(Oc3ccc(C(=O)Nc4ccccn4)cc3)c2cc1NC(=O)C#CCN1CCOCC1	2.1	0.47	24	EC50 [5]: 1.5 nM; EC50 (Blood): 12 nM
COCC#CC(=O)Nc1ccc2nccc(Oc3ccc(C(=O)Nc4ccccn4)cc3)c2c1	7	0.15	16	–
C=CC(=O)Nc1ccc2nccc(Oc3ccc(C(=O)Nc4ccccn4)cc3)c2c1	112	3.5	159	–
O=C(C#CCCN1CCOCC1)Nc1ccc2nccc(Oc3ccc(C(=O)Nc4ccccn4)cc3)c2c1	25	0.8	81	–
CC#CC(=O)Nc1cc2c(Oc3ccc(C(=O)Nc4ccccn4)cc3)ccnc2cc1OC	29	1.5	> 1000	EC50 [5]: 9.7 nM; EC50 (Blood): 66 nM
CC#CC(=O)Nc1cc2c(Oc3ccc(C(=O)Nc4ccccn4)cc3)ccnc2cc1OCCCN1CCN(C)CC1	3.9	1	233	EC50 [5]: 2.1 nM; EC50 (Blood): 35 nM
CC#CC(=O)N1CCC[C@H]1c1nc(-c2ccc(C(=O)Nc3ccccn3)cc2)c2c(N)nccn12 [ACALABRUTINIB]	–	–	–	ED50 [6]: 1.3 mg/kg; IC50 [7]: > 1000 nM
O=C(C#CCN1CCOCC1)Nc1ccc2nccc(Oc3ccc(C(=O)Nc4ccccn4)cc3)c2c1	12	0.26	13	–
CC#CC(=O)Nc1cc2c(Oc3ccc(C(=O)Nc4ccccn4)cc3)ccnc2cc1OC1CCOCC1	152	3.8	> 1000	–
CC#CC(=O)Nc1ccc2nccc(Oc3ccc(C(=O)Nc4ccccn4)cc3)c2c1	152	4.7	> 1000	–
C=CC(=O)Nc1ccc2ncnc(Oc3ccc(C(=O)Nc4ccccn4)cc3)c2c1	–	–	11	inhibition [8]: Tde; EC50 [3]: 7.2 nM
